Data taken from patent publication US8148347B2, “Inhibition of interaction of PSD93 and PSDS95 with nNOS and NMDA receptors” (The Johns Hopkins University, priority 2000, dated 2012).

Assays:
[1] = tested on: PSD-95/SAP90; experiment: immunoblot of PSD-95/SAP90 expression in spinal cord of OND-treated rats; type: in vivo, rat
From the text: Antisense ONDs, widely used as research tools and even as drugs in clinical trials, inhibit protein expression by the mechanisms of (1) steric blockade of ribosomal subunit attachment to mRNA at the 5′ cap site; (2) interference with proper mRNA splicing through antisense binding to splice donor or splice acceptor sites; (3) Rnase-H-mediated degradation of hybridized mRNA.^18 To further examine whether the action of antisense OND for PSD-95/SAP90 above was specifically due to selective decrease or lack of PSD-95/SAP90 but not other proteins in the spinal cord, we detected PSD-95/SAP90, NMDA receptor subunits 2A/2B (NR2A/2B), neuronal nitric oxide synthase (nNOS) and SAP-102 in homogenates from crude lumbar enlargement segments in the normal, saline-treated (control) and OND-treated rats. […]
Animal preparation and behavioral testing. […] Nociception was evaluated by the radiant heat tail-flick test. The doses and time point of maximal effect of NMDA used in the present study were determined based on a previous study.^24 The tail-flick apparatus (Model 33B Tail Flick Analgesy Meter, IITC Life Science, Woodland Hills, Calif., USA) generated a beam of radiant heat that was focused on the underside of the tail, 5 cm from the tip. […] Nociception was assessed by the time required to induce tail-flick after applying radiant heat to the skin of the tail. […]

[2] = tested on: Male Sprague-Dawley rats; experiment: blood pressure and heart rate during isoflurane anesthesia; type: in vivo, rat
From the text: On the fifth day after saline or ODNs injection, each rat was placed in a clear plastic cone and anesthetized with 5% isoflurane in oxygen for three to five minutes. After tracheostomy, the trachea of each animal was intubated with a 16-gauge polyethylene catheter. The inspired isoflurane concentration was reduced to 2%, and the animals breathed spontaneously until cannulation of a carotid artery and a jugular vein with PE-50 tubing was accomplished. The isoflurane concentration was decreased further to 1.5%, and ventilation was controlled by a Harvard Animal Respirator (Harvard Apparatus, South Natick, Mass.) adjusted according to the measurement of arterial blood gases to maintain normal partial pressure of oxygen (PO2=91-94 mmHg), partial pressure of carbon dioxide (PCO2=33-41 mmHg) and pH (7.4-7.44). Electrocardiography and systolic and diastolic blood pressure were monitored using a Grass Polygraph (Astroumed Grass, Quincy, Mass.) and Gould Pressure Transducer (Gould, Cleveland, Ohio). Rectal temperature was maintained between 36.5 and 37.5° C. by use of a heating blanket and warming lights.
In some saline-treated rats, after initial baseline MAC determination, NMDA at the dose of 1.25 μg^38 or saline was injected intrathecally in a volume of 10 μl saline, followed by an injection of 10 μl saline to flush the catheter. Fresh NMDA solution was prepared for each experiment. […] At this isoflurane concentration, 10 min after the intrathecal injection of NMDA, the animals were tested again for reactivity to tail clamp. The concentration of isoflurane was increased, and response to tail clamp was checked every 12-15 min thereafter until a negative response was achieved. In some antisense ODN (50 μg)-treated rats, after initial MAC determination, NMDA or saline was also administered intrathecally. The MAC for isoflurane was again determined following the aforementioned procedures.

[3] = pretreated with 50 μg antisense ODN, intrathecal NMDA 1.25 μg

Substance | PSD-95/SAP90 expression ([1]; spinal cord, after intrathecal treatment (FIG. 1Ab)) | BP Diastolic ([2]; 12.5 μg, before the tail clamp) | BP Systolic ([2]; 12.5 μg, before the tail clamp) | Heart rate ([2]; 12.5 μg, before the tail clamp) | BP Diastolic ([2]; 25 μg, before the tail clamp) | BP Systolic ([2]; 25 μg, before the tail clamp) | Heart rate ([2]; 25 μg, before the tail clamp) | BP Diastolic ([2]; 50 μg, before the tail clamp) | BP Systolic ([2]; 50 μg, before the tail clamp) | Heart rate ([2]; 50 μg, before the tail clamp) | Heart rate [2, 3] | diastolic blood pressure [2, 3] | systolic blood pressure [2, 3] | PSD-95/SAP90 protein in the postsynaptic density (PSD) fraction of the spinal cord ([1]; FIGS. 1Aa and b)
5′-TGTGATCTCCTCATACTC-3′ (DNA, backbone and methylation of C not given here; listed as Rattus rattus) [antisense oligonucletide corresponding to the PDZ domain nucleotides 241 to 258 of rat PSD-95/SAP90 mRNA] | < 15 % of control | 112.58 ± 7.14 mmHg | 127.58 ± 11.72 mmHg | 534.80 ± 29.13 beats/min | 105.83 ± 7.89 mmHg | 122.75 ± 10.81 mmHg | 541.20 ± 16.70 beats/min | 112.50 ± 11.20 mmHg | 129.58 ± 11.73 mmHg | 514.20 ± 62.20 beats/min | 553±17 beats/min | 117.00±6.35 mmHg | 138.00±5.77 mmHg | –
5′-AAGCCCTTGTTCCCATTT-3′ (DNA, backbone and methylation of C not given here; listed as Rattus rattus) [MS, missense OND control, reference compound] | – | – | – | – | – | – | – | 105.75 ± 11.40 mmHg | 121.33 ± 15.84 mmHg | 524.70 ± 44.90 beats/min | – | – | – | enriched
